In patent US8975263B2, “Phenylxanthene derivatives” (Daiichi Sankyo Company, Limited, priority 2013, dated 2015):

Test system: C57BL/6J mice
Assay: Oral glucose tolerance test
Assay type: in vivo
Settings: male C57BL/6J mice, fasted overnight; oral gavage 10 mg/kg; solvent 0.5% MC; glucose 3 g/kg orally 30 minutes after compound; area under the curve of blood glucose level relative to control group
Experimental: Commercially available mice (C57BL/6J mice; male; 8 to 12 weeks old when used; distributed by Charles River Laboratories Japan, Inc.) were used.
After acclimatization with freely feeding (FR-2, Funabashi Farm Co., Ltd.) for one week or more, the mice were fasted overnight and then used for the test. A 0.5% methylcellulose (Wako Pure Chemical Industries, Ltd.) solution (0.5% MC) containing a test compound at a concentration of 1 mg/ml and a mixed solution (PG:Tween) of propylene glycol (80 v/v %, Nacalai Tesque, Inc.) and Tween 80 (20 v/v %, Nacalai Tesque, Inc.) containing a test compound at a concentration of 2 mg/ml were prepared for administration to the mice. The prepared solution was administered by oral gavage to four or five mice in each group at a dose of 10 mg/kg as the test compound. For a control group, a 0.5% methylcellulose solution (dose: 10 ml/kg) or a mixed solution of propylene glycol and Tween 80 (dose: 5 ml/kg) was orally administered to mice. An oral glucose tolerance test was carried out by administering a glucose solution (Otsuka Glucose Solution 50%; Otsuka Pharmaceutical Factory, Inc.) orally at a dose of 3 g/kg to the mice 30 minutes after administration of the test compound.
Blood was collected from the tail vein of each mouse immediately before administration of the test compound (T0), […] after administration of the test compound (T1), and 30 minutes (T2) and 90 minutes (T3) after oral glucose loading. The blood glucose level was measured using a blood glucose level measuring apparatus (ACCU-CHEK Aviva; Roche Diagnostics, K.K.). The blood glucose level T1 was analyzed as a value obtained 30 minutes after administration of the compound and immediately before glucose loading. According to the following formula, the area under the curve of blood glucose level was calculated, and thereafter, the blood glucose lowering rate (%) was calculated as a value relative to the control group. The area under the curve of blood glucose level=[(blood glucose level T0+blood glucose level T1)×30]÷2+[(blood glucose level T1+blood glucose level T2)×30]÷2+[(blood glucose level T2+blood glucose level T3)×60]÷2 Blood glucose lowering rate(%)=[1−(the area under the curve of blood glucose level for the test compound group/the area under the curve of blood glucose level for the control group)]×100

First: COCCOc1ccc(-c2ccc(OC)c(C3C4=C(CC(C)(C)CC4=O)OC4=C3C(=O)CC(C)(C)C4)c2C)nc1C(=O)O [Example 29, 3-(2-Methoxyethoxy)-6-[4-methoxy-2-methyl-3-(3,3,6,6-tetramethyl-1,8-dioxo-2,3,4,5,6,7,8,9-octahydro-1H-xanthen-9-yl)phenyl]pyridine-2-carboxylic acid]
Second: COc1ccc(-c2ccc(N)c(C(=O)O)n2)c(C)c1C1C2=C(CC(C)(C)CC2=O)OC2=C1C(=O)CC(C)(C)C2 [Example 48, 3-Amino-6-[4-methoxy-2-methyl-3-(3,3,6,6-tetramethyl-1,8-dioxo-2,3,4,5,6,7,8,9-octahydro-1H-xanthen-9-yl)phenyl]pyridine-2-carboxylic acid]
The “Blood glucose lowering rate (%)” value of the first is lower: 32% for the first, 62% for the second.

First: COc1ccc(-c2ccc(C)c(C(=O)O)n2)cc1C1C2=C(CC(C)(C)CC2=O)OC2=C1C(=O)CC(C)(C)C2 [Example 30, 6-[4-Methoxy-3-(3,3,6,6-tetramethyl-1,8-dioxo-2,3,4,5,6,7,8,9-octahydro-1H-xanthen-9-yl)phenyl]-3-methylpyridine-2-carboxylic acid]
Second: COc1ccc(-c2ccc(N)c(C(=O)O)n2)cc1C1C2=C(CC(C)(C)CC2=O)OC2=C1C(=O)CC(C)(C)C2 [Example 51, 3-Amino-6-[4-methoxy-3-(3,3,6,6-tetramethyl-1,8-dioxo-2,3,4,5,6,7,8,9-octahydro-1H-xanthen-9-yl)phenyl]pyridine-2-carboxylic acid]
The “Blood glucose lowering rate (%)” value of the first is higher: 55% for the first, 39% for the second.

Compared with `COc1ccc(-c2ccc(C)c(C(=O)NS(C)(=O)=O)n2)cc1C1C2=C(CC(C)(C)CC2=O)OC2=C1C(=O)CC(C)(C)C2` [Example 31, 6-[4-Methoxy-3-(3,3,6,6-tetramethyl-1,8-dioxo-2,3,4,5,6,7,8,9-octahydro-1H-xanthen-9-yl)phenyl]-3-methyl-N-(methylsulfonyl)pyridine-2-carboxamide], `COc1ccc(-c2ccc(C)c(C(=O)NS(C)(=O)=O)n2)cc1C1C2=C(CC(C)(C)CC2=O)OC2=C1C(=O)CC(C)(C)C2.[K]` [Example 35, 6-[4-Methoxy-3-(3,3,6,6-tetramethyl-1,8-dioxo-2,3,4,5,6,7,8,9-octahydro-1H-xanthen-9-yl)phenyl]-3-methyl-N-(methylsulfonyl)pyridine-2-carboxamide potassium salt] is higher in “Blood glucose lowering rate (%)” value: 42% for the first, 52% for the second.

Going from `COc1ccc(-c2cc(C)cc(C(=O)O)n2)c(C)c1C1C2=C(CC(C)(C)CC2=O)OC2=C1C(=O)CC(C)(C)C2` [Example 32, 6-[4-Methoxy-2-methyl-3-(3,3,6,6-tetramethyl-1,8-dioxo-2,3,4,5,6,7,8,9-octahydro-1H-xanthen-9-yl)phenyl]-4-methylpyridine-2-carboxylic acid] to `COc1ccc(-c2cc(C)cc(C(=O)NS(C)(=O)=O)n2)c(C)c1C1C2=C(CC(C)(C)CC2=O)OC2=C1C(=O)CC(C)(C)C2` [Example 40, 6-[4-Methoxy-2-methyl-3-(3,3,6,6-tetramethyl-1,8-dioxo-2,3,4,5,6,7,8,9-octahydro-1H-xanthen-9-yl)phenyl]-4-methyl-N-(methylsulfonyl)pyridine-2-carboxamide], the “Blood glucose lowering rate (%)” value falls from 59% to 38%.

Compared with `COc1ccc(-c2nc(C(=O)O)ccc2C)c(C)c1C1C2=C(CC(C)(C)CC2=O)OC2=C1C(=O)CC(C)(C)C2` [Example 34, 6-[4-Methoxy-2-methyl-3-(3,3,6,6-tetramethyl-1,8-dioxo-2,3,4,5,6,7,8,9-octahydro-1H-xanthen-9-yl)phenyl]-5-methylpyridine-2-carboxylic acid], `CNc1ccc(-c2ccc(OC)c(C3C4=C(CC(C)(C)CC4=O)OC4=C3C(=O)CC(C)(C)C4)c2C)nc1C(=O)O` [Example 53, 6-[4-Methoxy-2-methyl-3-(3,3,6,6-tetramethyl-1,8-dioxo-2,3,4,5,6,7,8,9-octahydro-1H-xanthen-9-yl)phenyl]-3-(methylamino)pyridine-2-carboxylic acid] is higher in “Blood glucose lowering rate (%)” value: 58% for the first, 64% for the second.

Compared with `CC(C)(C)N.COc1ccc(-c2ccc(C)c(C(=O)NS(C)(=O)=O)n2)c(C)c1C1C2=C(CC(C)(C)CC2=O)OC2=C1C(=O)CC(C)(C)C2` [Example 41, 6-[4-Methoxy-2-methyl-3-(3,3,6,6-tetramethyl-1,8-dioxo-2,3,4,5,6,7,8,9-octahydro-1H-xanthen-9-yl)phenyl]-3-methyl-N-(methylsulfonyl)pyridine-2-carboxamide 2-methylpropan-2-amine salt], `COc1ccc(-c2ccc(N)c(C(=O)NS(C)(=O)=O)n2)c(C)c1C1C2=C(CC(C)(C)CC2=O)OC2=C1C(=O)CC(C)(C)C2` [Example 49, 3-Amino-6-[4-methoxy-2-methyl-3-(3,3,6,6-tetramethyl-1,8-dioxo-2,3,4,5,6,7,8,9-octahydro-1H-xanthen-9-yl)phenyl]-N-(methylsulfonyl)pyridine-2-carboxamide] is lower in “Blood glucose lowering rate (%)” value: 44% for the first, 34% for the second.

`CC(C)(C)N.COc1ccc(-c2cc(C)cc(C(=O)NS(C)(=O)=O)n2)c(C)c1C1C2=C(CC(C)(C)CC2=O)OC2=C1C(=O)CC(C)(C)C2` [Example 42, 6-[4-Methoxy-2-methyl-3-(3,3,6,6-tetramethyl-1,8-dioxo-2,3,4,5,6,7,8,9-octahydro-1H-xanthen-9-yl)phenyl]-4-methyl-N-(methylsulfonyl)pyridine-2-carboxamide 2-methylpropan-2-amine salt] and `COc1ccc(-c2cc(C)c(C)c(C(=O)NS(C)(=O)=O)n2)c(C)c1C1C2=C(CC(C)(C)CC2=O)OC2=C1C(=O)CC(C)(C)C2` [Example 44, 6-[4-Methoxy-2-methyl-3-(3,3,6,6-tetramethyl-1,8-dioxo-2,3,4,5,6,7,8,9-octahydro-1H-xanthen-9-yl)phenyl]-3,4-dimethyl-N-(methylsulfonyl)pyridine-2-carboxamide] are the same in “Blood glucose lowering rate (%)” value: 44% for the first, 44% for the second.

First: COc1ccc(-c2cc(C)c(C)c(C(=O)O)n2)c(C)c1C1C2=C(CC(C)(C)CC2=O)OC2=C1C(=O)CC(C)(C)C2 [Example 43, 6-[4-Methoxy-2-methyl-3-(3,3,6,6-tetramethyl-1,8-dioxo-2,3,4,5,6,7,8,9-octahydro-1H-xanthen-9-yl)phenyl]-3,4-dimethylpyridine-2-carboxylic acid]
Second: COc1ccc(-c2cc3c(c(C(=O)O)n2)CCCC3)c(C)c1C1C2=C(CC(C)(C)CC2=O)OC2=C1C(=O)CC(C)(C)C2 [Example 47, 3-[4-Methoxy-2-methyl-3-(3,3,6,6-tetramethyl-1,8-dioxo-2,3,4,5,6,7,8,9-octahydro-1H-xanthen-9-yl)phenyl]-5,6,7,8-tetrahydroisoquinoline-1-carboxylic acid]
The “Blood glucose lowering rate (%)” value of the first is higher: 60% for the first, 56% for the second.

First: CCc1ccc(-c2ccc(OC)c(C3C4=C(CC(C)(C)CC4=O)OC4=C3C(=O)CC(C)(C)C4)c2)nc1C(=O)O [Example 45, 3-Ethyl-6-[4-methoxy-3-(3,3,6,6-tetramethyl-1,8-dioxo-2,3,4,5,6,7,8,9-octahydro-1H-xanthen-9-yl)phenyl]pyridine-2-carboxylic acid]
Second: CCc1ccc(-c2ccc(OC)c(C3C4=C(CC(C)(C)CC4=O)OC4=C3C(=O)CC(C)(C)C4)c2)nc1C(=O)NS(C)(=O)=O [Example 46, 3-Ethyl-6-[4-methoxy-3-(3,3,6,6-tetramethyl-1,8-dioxo-2,3,4,5,6,7,8,9-octahydro-1H-xanthen-9-yl)phenyl]-N-(methylsulfonyl)pyridine-2-carboxamide]
The “Blood glucose lowering rate (%)” value of the first is lower: 42% for the first, 47% for the second.

First: COc1ccc(-c2ccc(N)c(C(=O)NS(C)(=O)=O)n2)cc1C1C2=C(CC(C)(C)CC2=O)OC2=C1C(=O)CC(C)(C)C2 [Example 52, 3-Amino-6-[4-methoxy-3-(3,3,6,6-tetramethyl-1,8-dioxo-2,3,4,5,6,7,8,9-octahydro-1H-xanthen-9-yl)phenyl]-N-(methylsulfonyl)pyridine-2-carboxamide]
Second: CNc1ccc(-c2ccc(OC)c(C3C4=C(CC(C)(C)CC4=O)OC4=C3C(=O)CC(C)(C)C4)c2C)nc1C(=O)NS(C)(=O)=O [Example 54, 6-[4-Methoxy-2-methyl-3-(3,3,6,6-tetramethyl-1,8-dioxo-2,3,4,5,6,7,8,9-octahydro-1H-xanthen-9-yl)phenyl]-3-(methylamino)-N-(methylsulfonyl)pyridine-2-carboxamide]
The “Blood glucose lowering rate (%)” value of the first is lower: 44% for the first, 49% for the second.

Same assay, conditions: male C57BL/6J mice, fasted overnight; oral gavage 10 mg/kg; solvent PG:Tween; glucose 3 g/kg orally 30 minutes after compound; area under the curve of blood glucose level relative to control group

With `CCOc1ccc(-c2ccc(OC)c(C3C4=C(CC(C)(C)CC4=O)OC4=C3C(=O)CC(C)(C)C4)c2C)nc1C(=O)O` [Example 28, 3-Ethoxy-6-[4-methoxy-2-methyl-3-(3,3,6,6-tetramethyl-1,8-dioxo-2,3,4,5,6,7,8,9-octahydro-1H-xanthen-9-yl)phenyl]pyridine-2-carboxylic acid] the “Blood glucose lowering rate (%)” value was 60%.
